Target: T1, Retinoic acid receptor gamma (Mus musculus) (UniProt P18911)
T1 sequence (whole entry): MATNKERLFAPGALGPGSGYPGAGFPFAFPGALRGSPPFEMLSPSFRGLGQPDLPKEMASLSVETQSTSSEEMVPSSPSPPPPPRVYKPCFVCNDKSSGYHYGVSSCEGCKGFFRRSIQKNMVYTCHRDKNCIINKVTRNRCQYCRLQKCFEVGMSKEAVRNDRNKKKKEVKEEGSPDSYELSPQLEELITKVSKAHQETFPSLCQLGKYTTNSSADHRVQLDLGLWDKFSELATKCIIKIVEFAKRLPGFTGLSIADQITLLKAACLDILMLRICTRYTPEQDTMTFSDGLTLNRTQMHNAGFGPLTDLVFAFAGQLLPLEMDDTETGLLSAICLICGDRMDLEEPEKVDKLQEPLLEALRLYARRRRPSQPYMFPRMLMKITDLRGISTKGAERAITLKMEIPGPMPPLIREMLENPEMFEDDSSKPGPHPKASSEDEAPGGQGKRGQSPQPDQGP
Assay: Transactivation of mouse Gal4-fused RARgamma-LBD expressed in COS-7 cells after 1 day by bright-Glo reagent based assay relative to control ATRA
Format: cell-based
Conditions: not given

First: O=C(O)c1ccc(NC(=O)c2cc(Cl)c(OC3CCCC3)c(OC3CCCC3)c2)cc1
Second: O=C(O)c1ccc(NC(=O)c2cc(Cl)c(OC3CCC3)c(OC3CCC3)c2)cc1
The Ratio EC50 of the first is lower: 571 for the first, 1060 for the second.

Compared with `CC1(C)CCC(C)(C)c2c1cc(C(=O)Nc1cc(F)c(C(=O)O)c(F)c1)c(O)c2Cl` [NRX195183], `O=C(O)c1ccc(NC(=O)c2cc(Cl)c(O)c(Cl)c2)cc1` is lower in Ratio EC50: 9840 for the first, 5000 for the second.

Going from `CCCOc1c(Cl)cc(C(=O)Nc2ccc(C(=O)O)cc2)cc1Cl` to `CCCCOc1c(Cl)cc(C(=O)Nc2ccc(C(=O)O)cc2)cc1Cl`, the Ratio EC50 rises from 1200 to 1480.

Going from `CC(C)Oc1c(Cl)cc(C(=O)Nc2ccc(C(=O)O)cc2)cc1Cl` to `COc1c(Cl)cc(C(=O)Nc2ccc(C(=O)O)cc2)cc1Cl`, the Ratio EC50 rises from 823 to 5850.

Compared with `CC(C)(C)Oc1cc(C(=O)Nc2ccc(C(=O)O)cc2)cc(Cl)c1OC(C)(C)C`, `CCOc1cc(C(=O)Nc2ccc(C(=O)O)cc2)cc(Cl)c1OC(C)C` is higher in Ratio EC50: 162 for the first, 1200 for the second.

Compared with `CCOc1cc(C(=O)Nc2ccc(C(=O)O)cc2)cc(OC(C)C)c1OCC`, `CCOc1cc(C(=O)Nc2ccc(C(=O)O)cc2)cc(OCC)c1OCC` is higher in Ratio EC50: 960 for the first, 5880 for the second.

First: CCOc1c(Cl)cc(NC(=O)c2ccc(C(=O)O)cc2)cc1Cl
Second: CCOc1c(OC2CCCC2)cc(C(=O)Nc2ccc(C(=O)O)cc2)cc1OC1CCCC1
The Ratio EC50 of the first is higher: > 108000 for the first, 550 for the second.

With `CC(C)Oc1cc(C(=O)Nc2ccc(C(=O)O)cc2)cc(OC(C)C)c1OC(C)C` the Ratio EC50 was 225.

Target: T2, Retinoic acid receptor alpha (Mus musculus) (UniProt P11416)
T2 sequence (whole entry): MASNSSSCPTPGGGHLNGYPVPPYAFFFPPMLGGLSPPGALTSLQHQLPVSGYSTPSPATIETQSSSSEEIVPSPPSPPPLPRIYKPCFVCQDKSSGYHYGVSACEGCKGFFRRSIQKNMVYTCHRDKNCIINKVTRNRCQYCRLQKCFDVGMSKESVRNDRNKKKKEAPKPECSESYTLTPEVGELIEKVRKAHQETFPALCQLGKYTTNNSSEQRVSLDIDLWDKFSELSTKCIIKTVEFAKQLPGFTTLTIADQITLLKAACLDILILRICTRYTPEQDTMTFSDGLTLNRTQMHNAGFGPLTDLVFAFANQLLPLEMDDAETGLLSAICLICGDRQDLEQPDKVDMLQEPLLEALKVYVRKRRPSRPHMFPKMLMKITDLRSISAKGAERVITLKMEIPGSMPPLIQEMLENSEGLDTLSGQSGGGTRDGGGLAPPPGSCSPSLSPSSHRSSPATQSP
Assay: Transactivation of mouse Gal4-fused RARalpha-LBD expressed in COS-7 cells after 1 day by bright-Glo reagent based assay relative to control ATRA
Format: cell-based
Conditions: not given

Compared with `CCOc1c(Cl)cc(C(=O)Nc2ccc(C(=O)O)c(Cl)c2)cc1Cl`, `CCOc1c(Cl)cc(C(=O)Nc2ccc(C(=O)O)c(F)c2)cc1Cl` is lower in Ratio EC50: 151 for the first, 25 for the second.

Going from `O=C(O)c1ccc(NC(=O)c2cc(Cl)c(OC3CCCC3)c(OC3CCCC3)c2)cc1` to `O=C(O)c1ccc(NC(=O)c2cc(Cl)c(OC3CCC3)c(OC3CCC3)c2)cc1`, the Ratio EC50 rises from 1.7 to 2.4.

Compared with `CC1(C)CCC(C)(C)c2c1cc(C(=O)Nc1cc(F)c(C(=O)O)c(F)c1)c(O)c2Cl` [NRX195183], `COc1c(Cl)cc(C(=O)Nc2ccc(C(=O)O)c(F)c2)cc1OC(C)C` is lower in Ratio EC50: 11 for the first, 6.7 for the second.

Compared with `CCCOc1c(Cl)cc(C(=O)Nc2ccc(C(=O)O)cc2)cc1Cl`, `CCCCOc1c(Cl)cc(C(=O)Nc2ccc(C(=O)O)cc2)cc1Cl` is higher in Ratio EC50: 15 for the first, 84 for the second.

First: CCOc1c(Cl)cc(C(=O)Nc2ccc(C(=O)O)c(C)c2)cc1OCC1CC1
Second: CCOc1c(Cl)cc(C(=O)Nc2ccc(C(=O)O)c(C)c2)cc1OC
The Ratio EC50 of the first is lower: 2.6 for the first, 33 for the second.

First: CCOc1c(Br)cc(C(=O)Nc2ccc(C(=O)O)cc2)cc1Br
Second: CCOc1c(Cl)cc(NC(=O)c2ccc(C(=O)O)cc2)cc1Cl
The Ratio EC50 of the first is lower: 5 for the first, 30 for the second.

First: CC(C)Oc1c(Cl)cc(C(=O)Nc2ccc(C(=O)O)cc2)cc1Cl
Second: COc1c(Cl)cc(C(=O)Nc2ccc(C(=O)O)cc2)cc1Cl
The Ratio EC50 of the first is lower: 7 for the first, 30 for the second.

Compared with `CCOc1cc(C(=O)Nc2ccc(C(=O)O)c(C)c2)cc(Cl)c1OC(C)C`, `COc1c(Cl)cc(C(=O)Nc2ccc(C(=O)O)c(C)c2)cc1OC(C)C` is lower in Ratio EC50: 7 for the first, 4.7 for the second.

Going from `Cc1cc(NC(=O)c2cc(Cl)c(OC(C)C)c(OC(C)C)c2)ccc1C(=O)O` to `CC(C)Oc1cc(C(=O)Nc2ccc(C(=O)O)c(F)c2)cc(Cl)c1OC(C)C`, the Ratio EC50 rises from 0.97 to 2.7.

Compared with `CC(C)(C)Oc1cc(C(=O)Nc2ccc(C(=O)O)cc2)cc(Cl)c1OC(C)(C)C`, `Cc1cc(NC(=O)c2cc(Cl)c(OC(C)(C)C)c(OC(C)(C)C)c2)ccc1C(=O)O` is lower in Ratio EC50: 0.9 for the first, 0.64 for the second.

Compared with `CCOc1cc(C(=O)Nc2ccc(C(=O)O)cc2)cc(OC(C)C)c1OCC`, `CCOc1cc(C(=O)Nc2ccc(C(=O)O)cc2)cc(OCC)c1OCC` is higher in Ratio EC50: 29 for the first, 368 to 370 for the second.

Going from `CCOc1c(Cl)cc(C(=O)Nc2ccc(C(=O)O)c(F)c2)cc1OC(C)C` to `CCOc1cc(C(=O)Nc2ccc(C(=O)O)cc2)cc(Cl)c1OC(C)C`, the Ratio EC50 rises from 1.1 to 2.1.

First: CCOc1c(Cl)cc(C(=O)Nc2ccc(C(=O)O)c(C(F)(F)F)c2)cc1Cl
Second: CCOc1c(Cl)cc(C(=O)Nc2ccc(C(=O)O)c(O)c2)cc1Cl
The Ratio EC50 of the first is lower: 1.7 for the first, 33 for the second.

Compared with `CCOc1c(C(C)(C)C)cc(C(=O)Nc2ccc(C(=O)O)cc2)cc1C(C)(C)C`, `CCOc1c(Cl)cc(C(=O)Nc2ccc(C(=O)O)cc2)cc1OC1CCC1` is higher in Ratio EC50: 0.2 for the first, 1 for the second.

Going from `CC(C)Oc1cc(C(=O)Nc2ccc(C(=O)O)cc2)cc(OC(C)C)c1OC(C)C` to `O=C(O)c1ccc(NC(=O)c2cc(Cl)c(O)c(Cl)c2)cc1`, the Ratio EC50 rises from 27 to 92.

`CCOc1c(OC2CCCC2)cc(C(=O)Nc2ccc(C(=O)O)cc2)cc1OC1CCCC1` gave a Ratio EC50 of 29.

System: not listed separately
Assay: Oral bioavailability in Sprague-Dawley rat at 10 mg/kg by LC-MS/MS analysis
Format: ADME, organism-based
Conditions: in vivo

With `CCOc1c(Cl)cc(C(=O)Nc2ccc(C(=O)O)cc2)cc1Cl` the bioavailability was > 35%.

Target: T3, Retinoic acid receptor beta (Mus musculus) (UniProt P22605)
T3 sequence (whole entry): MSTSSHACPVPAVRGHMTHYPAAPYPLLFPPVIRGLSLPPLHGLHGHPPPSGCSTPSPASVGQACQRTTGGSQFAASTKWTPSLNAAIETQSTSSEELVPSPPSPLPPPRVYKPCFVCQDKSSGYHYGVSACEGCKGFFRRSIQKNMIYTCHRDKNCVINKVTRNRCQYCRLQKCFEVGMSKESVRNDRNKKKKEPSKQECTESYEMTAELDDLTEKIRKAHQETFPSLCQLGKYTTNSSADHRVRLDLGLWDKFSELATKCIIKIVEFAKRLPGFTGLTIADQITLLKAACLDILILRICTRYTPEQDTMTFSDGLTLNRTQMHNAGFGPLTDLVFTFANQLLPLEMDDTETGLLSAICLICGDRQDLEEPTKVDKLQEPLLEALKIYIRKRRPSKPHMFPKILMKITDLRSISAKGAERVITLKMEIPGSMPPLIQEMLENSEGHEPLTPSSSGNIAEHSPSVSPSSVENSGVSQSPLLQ
Assay: Transactivation of mouse Gal4-fused RARbeta-LBD expressed in COS-7 cells after 1 day by bright-Glo reagent based assay relative to control ATRA
Format: cell-based
Conditions: not given

Compared with `O=C(O)c1ccc(NC(=O)c2cc(Cl)c(OC3CCCC3)c(OC3CCCC3)c2)cc1`, `O=C(O)c1ccc(NC(=O)c2cc(Cl)c(OC3CCC3)c(OC3CCC3)c2)cc1` is lower in Ratio EC50: 55 for the first, 53 for the second.

First: CC1(C)CCC(C)(C)c2c1cc(C(=O)Nc1cc(F)c(C(=O)O)c(F)c1)c(O)c2Cl [NRX195183]
Second: O=C(O)c1ccc(NC(=O)c2cc(Cl)c(O)c(Cl)c2)cc1
The Ratio EC50 of the first is higher: 1560 for the first, 642 for the second.

Compared with `CCCOc1c(Cl)cc(C(=O)Nc2ccc(C(=O)O)cc2)cc1Cl`, `CCCCOc1c(Cl)cc(C(=O)Nc2ccc(C(=O)O)cc2)cc1Cl` is higher in Ratio EC50: 139 for the first, 717 for the second.

Going from `CC(C)Oc1c(Cl)cc(C(=O)Nc2ccc(C(=O)O)cc2)cc1Cl` to `COc1c(Cl)cc(C(=O)Nc2ccc(C(=O)O)cc2)cc1Cl`, the Ratio EC50 rises from 1420 to 9520.

First: CC(C)(C)Oc1cc(C(=O)Nc2ccc(C(=O)O)cc2)cc(Cl)c1OC(C)(C)C
Second: CCOc1cc(C(=O)Nc2ccc(C(=O)O)cc2)cc(Cl)c1OC(C)C
The Ratio EC50 of the first is higher: 38 for the first, 7.1 for the second.

Going from `CCOc1cc(C(=O)Nc2ccc(C(=O)O)cc2)cc(OC(C)C)c1OCC` to `CCOc1cc(C(=O)Nc2ccc(C(=O)O)cc2)cc(OCC)c1OCC`, the Ratio EC50 rises from 2450 to 64100.

Going from `CCOc1c(Cl)cc(NC(=O)c2ccc(C(=O)O)cc2)cc1Cl` to `CCOc1c(OC2CCCC2)cc(C(=O)Nc2ccc(C(=O)O)cc2)cc1OC1CCCC1`, the Ratio EC50 rises from 355 to 4200.

Compound `CC(C)Oc1cc(C(=O)Nc2ccc(C(=O)O)cc2)cc(OC(C)C)c1OC(C)C` has a Ratio EC50 of 2600.

System: Rattus norvegicus
Assay: AUC in Sprague-Dawley rat at 10 mg/kg, po by LC-MS/MS analysis
Format: ADME, organism-based
Conditions: in vivo

In the case of `CCOc1c(OC(C)C)cc(C(=O)Nc2ccc(C(=O)O)cc2)cc1OC(C)C`, the AUC is reported as 783782 ng·min/mL.

— ChEMBL document CHEMBL4184197 (Bioorg Med Chem, 2018)
